Assay results as given in paper PMC7026418, “The kinase polypharmacology landscape of clinical PARP inhibitors” (Scientific Reports, 2020).
Read-outs that look alike come from different tables or passages of the source. Blank lines part the entries; values can stand above or below the compound they belong to.

Key:
Assay in all cases: biochemical
Design in all cases: DiscoveRx KINOMEscan active site-directed competition binding; percent of control kinase bound to immobilised ligand
PIP5K1A = PIP5K1A (Homo sapiens, UniProt Q99755)
TIE2 = target: T1, TIE2 (Homo sapiens, UniProt Q02763)
T1 construct: gene TEK

NLK = target: T2, NLK (Homo sapiens, UniProt Q9UBE8)
T2 sequence (Q9UBE8 1-527): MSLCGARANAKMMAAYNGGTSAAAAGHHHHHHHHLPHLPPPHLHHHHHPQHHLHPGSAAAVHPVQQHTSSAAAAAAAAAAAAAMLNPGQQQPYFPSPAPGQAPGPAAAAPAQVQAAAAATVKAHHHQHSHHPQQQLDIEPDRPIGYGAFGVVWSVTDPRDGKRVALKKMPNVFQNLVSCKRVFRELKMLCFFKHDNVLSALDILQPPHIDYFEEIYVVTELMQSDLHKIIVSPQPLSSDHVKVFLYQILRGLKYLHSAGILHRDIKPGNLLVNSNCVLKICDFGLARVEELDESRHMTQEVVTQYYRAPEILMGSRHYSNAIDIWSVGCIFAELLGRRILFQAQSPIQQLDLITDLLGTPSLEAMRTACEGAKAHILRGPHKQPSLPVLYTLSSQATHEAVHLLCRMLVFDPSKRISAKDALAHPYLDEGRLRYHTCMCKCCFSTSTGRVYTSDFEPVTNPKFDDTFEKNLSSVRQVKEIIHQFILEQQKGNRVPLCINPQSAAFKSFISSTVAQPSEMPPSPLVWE

AMPK-alpha2 = target: T3, AMPK-alpha2 (Homo sapiens, UniProt P54646)
T3 construct: gene PRKAA2

TGFBR1 = target: T4, TGFBR1 (Homo sapiens, UniProt P36897)
T4 sequence (P36897 1-503): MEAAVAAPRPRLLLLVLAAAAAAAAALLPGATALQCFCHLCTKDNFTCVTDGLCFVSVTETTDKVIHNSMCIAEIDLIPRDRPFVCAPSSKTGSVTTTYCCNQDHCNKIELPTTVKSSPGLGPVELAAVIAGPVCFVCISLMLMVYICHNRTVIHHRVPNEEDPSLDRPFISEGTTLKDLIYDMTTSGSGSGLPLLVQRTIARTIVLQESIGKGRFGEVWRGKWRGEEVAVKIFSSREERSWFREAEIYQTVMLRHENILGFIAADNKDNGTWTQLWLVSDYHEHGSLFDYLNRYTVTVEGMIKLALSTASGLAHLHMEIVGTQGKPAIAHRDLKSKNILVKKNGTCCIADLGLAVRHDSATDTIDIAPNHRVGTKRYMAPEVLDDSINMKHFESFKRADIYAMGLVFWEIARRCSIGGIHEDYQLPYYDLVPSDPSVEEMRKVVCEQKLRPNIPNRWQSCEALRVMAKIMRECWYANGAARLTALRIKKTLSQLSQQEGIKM

MARK1 = MARK1 (Homo sapiens, UniProt Q9P0L2)
TIE1 = TIE1 (Homo sapiens, UniProt P35590)
PIK3CD = target: T5, PIK3CD (Homo sapiens, UniProt O00329)
T5 sequence (O00329 1-1044): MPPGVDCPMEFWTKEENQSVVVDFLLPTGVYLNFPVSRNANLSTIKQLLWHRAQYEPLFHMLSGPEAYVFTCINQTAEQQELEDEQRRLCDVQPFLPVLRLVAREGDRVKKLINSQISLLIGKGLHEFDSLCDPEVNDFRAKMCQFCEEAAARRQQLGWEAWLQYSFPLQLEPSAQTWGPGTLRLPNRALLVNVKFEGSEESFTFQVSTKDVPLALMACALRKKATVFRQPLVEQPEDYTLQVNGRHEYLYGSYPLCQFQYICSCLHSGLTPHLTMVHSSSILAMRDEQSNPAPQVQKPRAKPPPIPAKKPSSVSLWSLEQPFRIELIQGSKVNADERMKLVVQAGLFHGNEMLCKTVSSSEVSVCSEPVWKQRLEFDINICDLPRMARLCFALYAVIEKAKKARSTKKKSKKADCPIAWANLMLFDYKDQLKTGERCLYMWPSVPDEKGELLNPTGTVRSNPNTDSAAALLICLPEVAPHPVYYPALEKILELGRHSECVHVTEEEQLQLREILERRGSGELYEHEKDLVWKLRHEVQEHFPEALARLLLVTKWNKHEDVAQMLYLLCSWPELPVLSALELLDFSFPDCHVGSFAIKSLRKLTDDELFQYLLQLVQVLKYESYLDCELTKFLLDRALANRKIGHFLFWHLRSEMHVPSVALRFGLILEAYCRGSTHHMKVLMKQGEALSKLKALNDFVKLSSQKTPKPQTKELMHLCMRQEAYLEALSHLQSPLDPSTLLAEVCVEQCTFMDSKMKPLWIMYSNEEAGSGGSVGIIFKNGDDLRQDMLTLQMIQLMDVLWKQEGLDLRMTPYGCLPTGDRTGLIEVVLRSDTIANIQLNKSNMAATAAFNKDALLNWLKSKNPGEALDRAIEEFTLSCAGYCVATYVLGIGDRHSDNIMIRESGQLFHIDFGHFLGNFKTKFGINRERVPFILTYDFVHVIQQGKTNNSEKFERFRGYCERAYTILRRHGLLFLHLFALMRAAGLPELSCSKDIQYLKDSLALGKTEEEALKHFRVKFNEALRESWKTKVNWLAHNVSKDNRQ

MAP3K1 = MAP3K1 (Homo sapiens, UniProt Q13233)
[1] = read-out: Olaparib / %Ctrl @ 10000nM
[2] = read-out: Talazoparib (BMN 673) / %Ctrl @ 10000nM
[3] = read-out: Rucaparib / %Ctrl @ 10000nM, binding competition, % of control
[4] = read-out: Niraparib (MK-4827) / %Ctrl @ 10000nM

Chain of MARK1 (Q9P0L2 whole entry): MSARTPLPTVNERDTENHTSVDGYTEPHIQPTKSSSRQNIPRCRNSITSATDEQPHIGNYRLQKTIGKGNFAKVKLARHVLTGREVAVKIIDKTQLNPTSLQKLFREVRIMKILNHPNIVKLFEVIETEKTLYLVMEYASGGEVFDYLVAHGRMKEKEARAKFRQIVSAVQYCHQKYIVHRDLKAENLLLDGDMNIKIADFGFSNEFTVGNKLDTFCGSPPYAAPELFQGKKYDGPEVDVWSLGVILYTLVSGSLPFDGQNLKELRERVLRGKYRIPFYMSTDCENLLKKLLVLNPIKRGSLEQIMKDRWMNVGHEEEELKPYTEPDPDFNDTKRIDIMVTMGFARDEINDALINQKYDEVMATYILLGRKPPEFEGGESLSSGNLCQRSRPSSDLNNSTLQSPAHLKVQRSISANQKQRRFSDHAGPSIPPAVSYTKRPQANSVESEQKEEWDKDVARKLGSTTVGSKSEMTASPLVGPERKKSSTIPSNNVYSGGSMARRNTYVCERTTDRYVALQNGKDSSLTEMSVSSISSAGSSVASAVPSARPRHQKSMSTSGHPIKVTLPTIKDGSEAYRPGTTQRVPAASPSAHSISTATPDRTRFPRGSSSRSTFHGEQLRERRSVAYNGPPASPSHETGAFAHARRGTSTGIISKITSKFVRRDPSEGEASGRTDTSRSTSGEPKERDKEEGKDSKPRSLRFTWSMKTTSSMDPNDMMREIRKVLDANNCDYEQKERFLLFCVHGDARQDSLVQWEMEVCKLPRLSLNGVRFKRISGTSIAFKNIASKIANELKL
T1 sequence (Q02763 whole entry): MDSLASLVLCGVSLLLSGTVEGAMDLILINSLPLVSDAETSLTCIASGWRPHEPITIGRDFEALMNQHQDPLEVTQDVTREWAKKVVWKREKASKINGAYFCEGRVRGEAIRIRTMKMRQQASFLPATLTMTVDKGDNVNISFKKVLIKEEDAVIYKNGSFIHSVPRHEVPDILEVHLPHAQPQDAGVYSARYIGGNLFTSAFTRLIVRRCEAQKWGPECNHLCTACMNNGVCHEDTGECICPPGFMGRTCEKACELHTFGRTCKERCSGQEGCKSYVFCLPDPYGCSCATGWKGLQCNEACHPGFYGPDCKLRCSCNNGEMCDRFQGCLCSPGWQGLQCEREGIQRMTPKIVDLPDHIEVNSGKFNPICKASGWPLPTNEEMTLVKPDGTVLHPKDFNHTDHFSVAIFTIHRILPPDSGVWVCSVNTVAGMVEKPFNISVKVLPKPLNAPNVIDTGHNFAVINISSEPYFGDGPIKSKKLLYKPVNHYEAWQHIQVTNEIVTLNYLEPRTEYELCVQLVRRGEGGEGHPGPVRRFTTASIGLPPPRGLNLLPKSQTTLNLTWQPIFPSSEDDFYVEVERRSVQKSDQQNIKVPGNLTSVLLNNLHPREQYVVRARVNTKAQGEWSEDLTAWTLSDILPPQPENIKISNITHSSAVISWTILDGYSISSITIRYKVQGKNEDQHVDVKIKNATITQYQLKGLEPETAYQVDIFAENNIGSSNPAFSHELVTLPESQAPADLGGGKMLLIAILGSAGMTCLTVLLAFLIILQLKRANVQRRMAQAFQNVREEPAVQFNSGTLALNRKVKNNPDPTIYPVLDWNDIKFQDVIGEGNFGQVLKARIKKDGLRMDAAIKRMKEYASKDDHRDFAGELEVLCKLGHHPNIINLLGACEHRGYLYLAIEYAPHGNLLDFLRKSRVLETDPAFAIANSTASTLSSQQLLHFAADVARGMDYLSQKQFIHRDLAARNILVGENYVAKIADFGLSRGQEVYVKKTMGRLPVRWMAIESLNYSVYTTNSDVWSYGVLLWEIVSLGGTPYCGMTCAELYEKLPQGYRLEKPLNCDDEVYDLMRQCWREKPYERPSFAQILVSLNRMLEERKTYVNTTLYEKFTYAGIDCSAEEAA
Chain of TIE1 (P35590 whole entry): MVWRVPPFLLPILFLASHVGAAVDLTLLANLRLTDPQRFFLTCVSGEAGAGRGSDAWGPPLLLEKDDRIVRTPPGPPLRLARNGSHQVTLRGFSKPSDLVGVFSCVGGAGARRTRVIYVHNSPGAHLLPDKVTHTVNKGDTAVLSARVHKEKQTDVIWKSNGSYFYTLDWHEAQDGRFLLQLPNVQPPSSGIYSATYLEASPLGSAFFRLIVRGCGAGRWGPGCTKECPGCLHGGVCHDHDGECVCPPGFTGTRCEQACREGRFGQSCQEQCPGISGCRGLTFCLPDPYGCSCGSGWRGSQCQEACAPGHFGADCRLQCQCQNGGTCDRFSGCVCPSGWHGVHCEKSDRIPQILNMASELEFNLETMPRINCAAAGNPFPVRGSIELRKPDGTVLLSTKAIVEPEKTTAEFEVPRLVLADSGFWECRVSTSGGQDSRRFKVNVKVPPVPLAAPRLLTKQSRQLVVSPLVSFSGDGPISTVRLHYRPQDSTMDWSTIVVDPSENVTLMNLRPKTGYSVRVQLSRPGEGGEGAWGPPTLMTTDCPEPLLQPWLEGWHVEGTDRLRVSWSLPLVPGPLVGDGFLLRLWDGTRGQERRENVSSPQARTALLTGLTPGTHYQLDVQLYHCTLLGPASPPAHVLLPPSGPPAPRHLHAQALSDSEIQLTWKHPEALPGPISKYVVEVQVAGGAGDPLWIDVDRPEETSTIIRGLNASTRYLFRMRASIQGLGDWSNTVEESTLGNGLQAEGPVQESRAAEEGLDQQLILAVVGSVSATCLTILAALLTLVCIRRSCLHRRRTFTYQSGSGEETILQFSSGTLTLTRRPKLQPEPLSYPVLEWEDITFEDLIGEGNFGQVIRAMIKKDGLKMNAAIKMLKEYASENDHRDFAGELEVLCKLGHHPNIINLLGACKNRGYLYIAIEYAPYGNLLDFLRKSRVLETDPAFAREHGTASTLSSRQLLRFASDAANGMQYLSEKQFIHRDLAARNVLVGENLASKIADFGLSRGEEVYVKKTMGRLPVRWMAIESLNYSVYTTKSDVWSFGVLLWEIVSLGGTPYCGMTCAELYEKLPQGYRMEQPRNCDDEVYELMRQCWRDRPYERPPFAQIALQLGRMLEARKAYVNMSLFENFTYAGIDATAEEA
Chain of MAP3K1 (Q13233 whole entry): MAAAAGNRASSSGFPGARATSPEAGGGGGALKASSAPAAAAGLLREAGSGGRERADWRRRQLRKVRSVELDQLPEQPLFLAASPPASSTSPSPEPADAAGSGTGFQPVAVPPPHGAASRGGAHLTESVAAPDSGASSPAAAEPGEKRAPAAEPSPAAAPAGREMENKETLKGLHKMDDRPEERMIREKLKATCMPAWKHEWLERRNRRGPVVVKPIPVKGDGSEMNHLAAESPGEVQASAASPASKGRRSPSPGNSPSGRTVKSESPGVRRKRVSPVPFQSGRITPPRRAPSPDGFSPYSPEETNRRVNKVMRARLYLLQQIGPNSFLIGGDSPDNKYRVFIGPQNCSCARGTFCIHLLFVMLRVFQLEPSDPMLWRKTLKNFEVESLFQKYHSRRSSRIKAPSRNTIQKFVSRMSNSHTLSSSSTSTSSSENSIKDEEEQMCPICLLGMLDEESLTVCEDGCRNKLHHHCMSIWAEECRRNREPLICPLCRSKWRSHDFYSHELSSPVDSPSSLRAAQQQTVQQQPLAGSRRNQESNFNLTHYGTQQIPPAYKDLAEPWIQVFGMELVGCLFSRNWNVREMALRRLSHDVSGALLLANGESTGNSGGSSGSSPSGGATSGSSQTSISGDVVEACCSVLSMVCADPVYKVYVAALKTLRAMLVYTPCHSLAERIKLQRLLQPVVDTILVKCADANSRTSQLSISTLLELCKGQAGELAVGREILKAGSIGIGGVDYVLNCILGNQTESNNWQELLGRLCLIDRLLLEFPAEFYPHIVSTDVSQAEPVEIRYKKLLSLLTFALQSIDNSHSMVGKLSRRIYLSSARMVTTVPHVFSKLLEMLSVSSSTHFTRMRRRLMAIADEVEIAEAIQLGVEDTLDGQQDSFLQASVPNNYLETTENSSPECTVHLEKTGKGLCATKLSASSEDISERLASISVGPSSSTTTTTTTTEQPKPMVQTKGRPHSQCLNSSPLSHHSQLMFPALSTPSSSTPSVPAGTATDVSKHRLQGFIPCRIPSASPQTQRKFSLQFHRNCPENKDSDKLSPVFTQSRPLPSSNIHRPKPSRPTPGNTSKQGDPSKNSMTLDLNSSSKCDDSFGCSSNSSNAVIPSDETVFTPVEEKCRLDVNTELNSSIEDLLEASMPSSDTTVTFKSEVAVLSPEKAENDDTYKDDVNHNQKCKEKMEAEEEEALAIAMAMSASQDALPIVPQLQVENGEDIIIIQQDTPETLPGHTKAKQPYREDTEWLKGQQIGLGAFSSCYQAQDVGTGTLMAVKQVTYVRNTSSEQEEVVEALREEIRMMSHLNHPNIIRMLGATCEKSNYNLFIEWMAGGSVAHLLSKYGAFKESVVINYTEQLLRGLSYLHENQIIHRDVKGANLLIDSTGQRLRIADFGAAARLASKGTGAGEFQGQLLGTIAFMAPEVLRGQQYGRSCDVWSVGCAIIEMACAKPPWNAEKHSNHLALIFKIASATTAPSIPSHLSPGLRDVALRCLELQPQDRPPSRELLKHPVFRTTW
Chain of PIP5K1A (Q99755 whole entry): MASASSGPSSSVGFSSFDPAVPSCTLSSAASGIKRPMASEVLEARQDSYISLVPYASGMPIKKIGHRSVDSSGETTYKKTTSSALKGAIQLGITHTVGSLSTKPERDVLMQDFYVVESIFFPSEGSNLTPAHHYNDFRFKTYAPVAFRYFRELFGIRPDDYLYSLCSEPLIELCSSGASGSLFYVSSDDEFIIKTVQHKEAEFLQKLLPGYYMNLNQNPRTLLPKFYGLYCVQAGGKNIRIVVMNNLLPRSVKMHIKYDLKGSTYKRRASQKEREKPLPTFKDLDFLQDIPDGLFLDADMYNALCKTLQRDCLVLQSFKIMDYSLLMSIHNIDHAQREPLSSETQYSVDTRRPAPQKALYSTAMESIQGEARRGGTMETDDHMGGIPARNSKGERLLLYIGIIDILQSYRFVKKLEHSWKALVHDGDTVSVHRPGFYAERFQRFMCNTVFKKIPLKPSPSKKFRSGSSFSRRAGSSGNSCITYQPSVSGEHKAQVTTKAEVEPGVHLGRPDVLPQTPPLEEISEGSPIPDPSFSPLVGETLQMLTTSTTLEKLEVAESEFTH

percent of control binding at 10 µM (PIP5K1A; [1]): 100%
percent of control binding at 10 µM (TIE2; [1]): 100%
percent of control binding at 10 µM (NLK; [1]): 85%
percent of control binding at 10 µM (AMPK-alpha2; [1]): 93%
percent of control binding at 10 µM (TGFBR1; [1]): 93%
percent of control binding at 10 µM (MARK1; [1]): 93%
percent of control binding at 10 µM (TIE1; [1]): 96%
percent of control binding at 10 µM (PIK3CD; [1]): 75%
percent of control binding at 10 µM (MAP3K1; [1]): 91%
Structure (SMILES): O=C(c1cc(Cc2n[nH]c(=O)c3ccccc23)ccc1F)N1CCN(C(=O)C2CC2)CC1 [Olaparib]

percent of control binding at 10 µM (PIP5K1A; [2]): 88%
percent of control binding at 10 µM (TIE2; [2]): 100%
percent of control binding at 10 µM (NLK; [2]): 100%
percent of control binding at 10 µM (AMPK-alpha2; [2]): 94%
percent of control binding at 10 µM (TGFBR1; [2]): 100%
percent of control binding at 10 µM (MARK1; [2]): 89%
percent of control binding at 10 µM (TIE1; [2]): 100%
percent of control binding at 10 µM (PIK3CD; [2]): 82%
percent of control binding at 10 µM (MAP3K1; [2]): 97%
Structure (SMILES): Cn1ncnc1[C@H]1c2n[nH]c(=O)c3cc(F)cc(c23)N[C@@H]1c1ccc(F)cc1 [Talazoparib]

percent of control binding at 10 µM (PIP5K1A; [3]): 100%
percent of control binding at 10 µM (TIE2; [3]): 92%
percent of control binding at 10 µM (NLK; [3]): 78%
percent of control binding at 10 µM (AMPK-alpha2; [3]): 87%
percent of control binding at 10 µM (TGFBR1; [3]): 98%
percent of control binding at 10 µM (MARK1; [3]): 85%
percent of control binding at 10 µM (TIE1; [3]): 92%
percent of control binding at 10 µM (PIK3CD; [3]): 64%
percent of control binding at 10 µM (MAP3K1; [3]): 98%
Structure (SMILES): CNCc1ccc(-c2[nH]c3cc(F)cc4c3c2CCNC4=O)cc1 [Rucaparib]

Structure (SMILES): NC(=O)c1cccc2cn(-c3ccc([C@@H]4CCCNC4)cc3)nc12 [Niraparib]
percent of control binding at 10 µM (PIP5K1A; [4]): 100%
percent of control binding at 10 µM (TIE2; [4]): 98%
percent of control binding at 10 µM (NLK; [4]): 100%
percent of control binding at 10 µM (AMPK-alpha2; [4]): 89%
percent of control binding at 10 µM (TGFBR1; [4]): 98%
percent of control binding at 10 µM (MARK1; [4]): 93%
percent of control binding at 10 µM (TIE1; [4]): 87%
percent of control binding at 10 µM (PIK3CD; [4]): 73%
percent of control binding at 10 µM (MAP3K1; [4]): 92%
